Assay results reported in patent US5736557A, “N,N-bis (quinolin-4-yl)-diamine derivatives, their preparation and their use as antimalarials” (Hoffman-La Roche, Inc., priority 1994, dated 1998).
Converted amounts (≈) assume the structure as drawn. Where two headings read alike, the source gives them in different places.

Legend:
[1] = system: chloroquine-resistant strains of the human-pathogenic Plasmodium falciparum; assay: Growth inhibition of chloroquine-resistant Plasmodium falciparum strains in vitro; assay type: cell-based; details: for IC50: Plasmodium falciparum; for Resistance index: ratio of average IC50 values for resistant strains and average values for sensitive strains
Procedure: (§1) Test Method for the Determination of the Activity Against Plasmodium falciparum in vitro
(§2) The preparations are tested on intraerythrocytary stages of Plasmodium falciparum from asynchronous cultures according to the method of Desjardin et al. (Desjardins, R. E. et al: Quantitative assessment of antimalarial activity in vitro by a semiautomated microdilution technique. Antimicrob. Agents Chemother. 16, 710-718, (1979)).
(§3) The culture medium consists of RPMI 1640 with the addition of 25 mM HEPES, 25 mM NaHCO3, 100 μg/ml neomycin and […] (A^+). Human-A^+ erythrocytes are used as the Plasmodium falciparum host cells. The parasites are maintained at 37° C. in an atmosphere of 3% O2, 4% CO2, 9:3% N2 and 95% relative humidity.
(§4) In order to determine the activity, the preparations are dissolved in dimethyl sulphoxide, pre-diluted in the culture medium to a suitable starting concentration and subsequently titrated-out on to microtitre plates in the 2nd stage over 6-7 steps. After the addition of the parasite culture (0.7% parasitemia in 2.5% erythrocyte suspension) the test plates are incubated under the conditions given above for 48 h-72 h. The parasite growth in the different preparation concentrations is determined using [G--^3 H]-hypoxanthin incorporation compared to untreated control cultures on the same test plates. The 50% growth inhibition (IC50) is calculated according to logit regression analysis from the resulting dosage-activity curve.
(§5) The preparations are tested on at least one chloroquine-resistant and one chloroquine-sensitive Plasmodium falciparum strain. Additional sensitive and resistant strains are included for futher characterization.

[2] = system: chloroquine-sensitive strains of the human-pathogenenic Plasmodium falciparum; assay: Growth inhibition of chloroquine-sensitive Plasmodium falciparum strains in vitro; assay type: cell-based; details: read-out: IC50 growth inhibition
Procedure: as §1, §2, §3, §4, §5

[3] = system: Plasmodium berghei; assay: Activity against Plasmodium berghei in vivo in mice; design: species or system Plasmodium berghei (strain ANKA) in mice; details: percentage parasitemia reduction, mice
Procedure: Test Method for the Determination of the Activity Against Plasmodium berghei in vivo
The preparations are tested on mice infected with malaria pathogens (Plasmodium berghei). Male albino mice (IBM:MORO(SPF), FUELLINSDORF) weighing about 25 g are used as the test animals. They are kept in climatized rooms at 21°-22° C. in groups of 5 animals per cage. They receive ad libitum a diet feed with a low PABA content (NAFAG FUTTER .COPYRGT. No. 9009 PAB-45, PABA content 45 mg/kg) and drinking water. On the first day of the test (DO) the test animals are infected with Plasmodium berghei (strain ANKA). For this there is used heparinized blood of a donor mouse with about 30% parasitemia, which is diluted with physiological saline such that it contains 10^8 parasitized erythrocytes per ml. 0.2 ml of this suspension is injected intravenously (i.v.) into the mice to be treated and into the control mice. In untreated control animals the parasitemia normally reaches 30-40% on the third day after the infection (D+3) and the test animals die between days +5 and +7.
The substances to be tested are dissolved or suspended in distilled water or in a mixture of 7% Tween 80, 3% alcohol (96%) and water. Usually, 0.25 ml of this solution or suspension is administered once subcutaneously and perorally to groups of 5 test animals. Treatment is effected 24 hours after the infection. 10 control animals are treated in the same manner with solvent or suspension medium per test.
All substances are tested in a first test in a single dosage of 10 mg/kg. Only those substances which in this test (10 mg/kg) have shown a parasitaemia reduction of 90% are used for the titration. Suitable dilutions of the test substance can be used to obtain an accurate titration of the activity.
48 hours after the treatment (D+3) blood smears are prepared from all animals using blood from tail veins and are stained with giemsa. The average erythrocyte infection rate (parasitemiea in %) in the control groups as well as in the groups which have been treated with the test compounds is determined by counting under a microscope. The difference in the average values of the infection rates of control group (100%) and treated groups is calculated and expressed as a percentage reduction (GI%). The ED50 or ED90 is determined mathematically by means of the JMP programme (nonlinear fit). The ED50 (ED90) in mg/kg is that dose which after single administration reduces the average erythrocyte infection rate by 50% (90%) in comparison to the control group.

[4] = read-out: IC50 growth inhibition, strain 7G8, chloroquine-resistant
[5] = read-out: IC50 growth inhibition, strain Indo, chloroquine-resistant
[6] = read-out: IC50 growth inhibition, strain ItG2F6, chloroquine-resistant
[7] = read-out: IC50 growth inhibition, strain K1, chloroquine-resistant
[8] = read-out: IC50 growth inhibition, strain RFCF3, chloroquine-resistant
[9] = read-out: IC50 growth inhibition, strain W2, chloroquine-resistant
[10] = read-out: IC50 growth inhibition, strain W2 Mef, chloroquine-resistant
[11] = HB3, strain HB3, chloroquine-sensitive
[12] = NF54, strain NF54, chloroquine-sensitive
[13] = strain FCH5C2, chloroquine-sensitive
[14] = strain RFMEF3, chloroquine-sensitive
[15] = strain Ro73, chloroquine-sensitive
[16] = po, single peroral dose 10 mg/kg, read-out: GI % at 10 mg/kg po
[17] = sc, single subcutaneous dose 10 mg/kg, read-out: GI % at 10 mg/kg sc

Compound | IC50 [1, 4] | IC50 [1, 5] | IC50 [1, 6] | IC50 [1, 7] | IC50 [1, 8] | IC50 [1, 9] | IC50 [1, 10] | Resistance index [1] | IC50 [2, 11] | IC50 [2, 12] | IC50 [2, 13] | IC50 [2, 14] | IC50 [2, 15] | inhibition in vivo at 10 mg/kg [3, 16] | inhibition in vivo at 10 mg/kg [3, 17]
Clc1ccc2c(N[C@H]3CC[C@H](Nc4ccnc5cc(Cl)ccc45)CC3)ccnc2c1 [Example 4, ±-trans-N,N'-Bis-(7-chloroquinolin-4-yl)-cyclohexane-1,4-diamine] | 2.8 ng/mL (≈ 0.0064 µM) | 6 ng/mL (≈ 0.0137 µM) | 5.3 ng/mL (≈ 0.0121 µM) | 11.6 ng/mL (≈ 0.0265 µM) | 9.5 ng/mL (≈ 0.0217 µM) | 13.1 ng/mL (≈ 0.03 µM) | 7 ng/mL (≈ 0.016 µM) | 2.1 | 3.3 ng/mL (≈ 0.00755 µM) | 7.2 ng/mL (≈ 0.0165 µM) | 3.6 ng/mL (≈ 0.00823 µM) | 3.3 ng/mL (≈ 0.00755 µM) | 1.6 ng/mL (≈ 0.00366 µM) | 73% | 37%
Clc1ccc2c(Nc3cccc(Nc4ccnc5cc(Cl)ccc45)c3)ccnc2c1 [Example 9, N,N'-Bis-(7-Chloroquinolin-4-yl)-phenylene-1,3-diamine] | 17.1 ng/mL (≈ 0.0396 µM) | 7.7 ng/mL (≈ 0.0179 µM) | 12.9 ng/mL (≈ 0.0299 µM) | 17.1 ng/mL (≈ 0.0396 µM) | 12.5 ng/mL (≈ 0.029 µM) | 12.1 ng/mL (≈ 0.0281 µM) | 12.1 ng/mL (≈ 0.0281 µM) | 0.9 | 9.5 ng/mL (≈ 0.022 µM) | 23.7 ng/mL (≈ 0.0549 µM) | 15.6 ng/mL (≈ 0.0362 µM) | 10.8 ng/mL (≈ 0.025 µM) | 10.4 ng/mL (≈ 0.0241 µM) | 86% | 83%
